Patent publication US20120225062A1 (priority 2011, published 2012)

Tests used:
Pim 1 = Pim 1 (Homo sapiens, UniProt P11309); experiment: Pim 1 AlphaScreen assay (high ATP)
Protocol: The activity of Pim 1, Pim 2, & Pim 3 is measured using a homogeneous bead based system quantifying the amount of phosphorylated peptide substrate resulting from kinase-catalyzed phosphoryl transfer to a peptide substrate. Compounds to be tested are dissolved in 100% DMSO and directly distributed to a white 384-well plate at 0.25 μl per well. […] This is followed by the addition of 5 μl/well of Pim 1, Pim 2 or Pim 3 kinase in assay buffer (concentrations described below). Final assay concentrations (described below) are in 2.5% DMSO. The reactions are performed for ˜2 hours, then stopped by the addition of 10 μl of 0.75 μg/ml anti-phospho Ser/Thr antibody (Cell Signaling), 10 μg/ml Protein A AlphaScreen beads (Perkin Elmer), and 10 μg/ml streptavidin coated AlphaScreen beads in stop/detection buffer (50 mM EDTA, 95 mM Tris, pH=7.5, 0.01% Tween-20). The stopped reactions are incubated overnight in the dark. The phosphorylated peptide is detected via an oxygen anion initiated chemiluminescence/fluorescence cascade using the Envision plate reader (Perkin Elmer).

[1] = tested on: KMS11 (human myeloma cell line); experiment: Cell Proliferation Assay (CellTiter-Glo, 3 days); format: cell-based; conditions: KMS-11, 72 h, KMS11-luc cells
Procedure, shortened: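 EC50 from CellTiter-Glo luminescence after 3-day, 37° C compound treatment of KMS11 cells seeded at 2000 per well in IMDM plus 10% FBS.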

Pim 3 = Pim 3 (Homo sapiens, UniProt Q86V86); experiment: Pim 3 AlphaScreen assay (high ATP)
Pim 2 = Pim 2 (Homo sapiens, UniProt Q9P1W9); experiment: Pim 2 AlphaScreen assay (high ATP)
Chain of Pim 2 (Q9P1W9 whole entry): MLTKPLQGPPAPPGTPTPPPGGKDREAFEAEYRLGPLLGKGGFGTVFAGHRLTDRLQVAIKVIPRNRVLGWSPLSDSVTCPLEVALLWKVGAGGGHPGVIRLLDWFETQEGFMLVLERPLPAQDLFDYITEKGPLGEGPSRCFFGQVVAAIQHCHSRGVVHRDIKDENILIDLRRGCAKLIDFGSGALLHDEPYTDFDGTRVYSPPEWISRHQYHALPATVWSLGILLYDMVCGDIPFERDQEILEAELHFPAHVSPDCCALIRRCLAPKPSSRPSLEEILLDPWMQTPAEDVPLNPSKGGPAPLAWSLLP

Chain of Pim 1 (P11309 whole entry): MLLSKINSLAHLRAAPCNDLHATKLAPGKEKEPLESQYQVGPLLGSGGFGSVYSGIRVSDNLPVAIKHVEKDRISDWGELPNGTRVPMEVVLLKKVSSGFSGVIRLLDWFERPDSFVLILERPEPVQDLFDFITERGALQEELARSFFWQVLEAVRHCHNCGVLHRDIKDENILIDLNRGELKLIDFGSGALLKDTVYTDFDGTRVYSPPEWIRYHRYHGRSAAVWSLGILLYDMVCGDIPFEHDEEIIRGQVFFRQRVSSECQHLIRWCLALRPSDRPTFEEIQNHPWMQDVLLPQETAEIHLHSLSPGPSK

| SMILES | IC50 (Pim 1) [nM] | EC50 [1] [nM] | IC50 (Pim 3) [nM] | IC50 (Pim 2) [nM] |
| --- | --- | --- | --- | --- |
| COCCOc1cc(F)c(-c2cccc(C(=O)Nc3cnccc3[C@@H]3C[C@H](C)C[C@H](N)C3)n2)c(F)c1 [Example 188, N-(4-((1R,3S,5S)-3-amino-5-methylcyclohexyl)pyridin-3-yl)-6-(2,6-difluoro-4-(2-methoxyethoxy)phenyl)picolinamide] | 0.07 | 478 | 1.96 | 3.96 |
| CC(C)Oc1cc(F)c(-c2cccc(C(=O)Nc3cnccc3[C@H]3C[C@@H](N)[C@H](O)[C@@H](C)C3)n2)c(F)c1 [Example 189, N-(4-((1R,3R,4R,5S)-3-amino-4-hydroxy-5-methylcyclohexyl)pyridin-3-yl)-6-(2,6-difluoro-4-isopropoxyphenyl)picolinamide] | 0.04 | 470 | 0.96 | 2.67 |
| C[C@@H]1C[C@H](N)C[C@H](c2ccncc2NC(=O)c2cccc(-c3c(F)cc(C4(F)CCOCC4)cc3F)n2)C1 [Example 190, N-(4-((1R,3S,5S)-3-amino-5-methylcyclohexyl)pyridin-3-yl)-6-(2,6-difluoro-4-(4-fluorotetrahydro-2H-pyran-4-yl)phenyl)picolinamide] | 0.05 | 402 | 2.9 | 3.26 |
| C[C@H]1C[C@@H](c2ccncc2NC(=O)c2cccc(-c3c(F)cc(N4CCOCC4)cc3F)n2)C[C@@H](N)[C@@H]1O [Example 191, N-(4-((1R,3R,4R,5S)-3-amino-4-hydroxy-5-methylcyclohexyl)pyridin-3-yl)-6-(2,6-difluoro-4-morpholinophenyl)picolinamide] | 0.02 | 263 | 0.52 | 2.31 |
| C[C@@H]1C[C@H](N)C[C@H](c2ccncc2NC(=O)c2cccc(-c3c(F)cc(C4CCOCC4)cc3F)n2)C1 [Example 192, N-(4-((1R,3S,5S)-3-amino-5-methylcyclohexyl)pyridin-3-yl)-6-(2,6-difluoro-4-(tetrahydro-2H-pyran-4-yl)phenyl)picolinamide] | 0.02 | 114 | 1.06 | 3.49 |
| C=Cc1ccc(F)c(-c2nc(C(=O)Nc3cnccc3[C@H]3C[C@@H](N)[C@H](O)[C@@H](C)C3)ccc2F)c1F [Example 193, N-(4-((1R,3R,4R,5S)-3-amino-4-hydroxy-5-methylcyclohexyl)pyridin-3-yl)-6-(2,6-difluoro-3-vinylphenyl)-5-fluoropicolinamide] | 0.47 | 1850 | 10.2 | 31.8 |
| C=CCOc1ccc(F)c(-c2nc(C(=O)Nc3cnccc3[C@H]3C[C@@H](N)[C@H](O)[C@@H](C)C3)ccc2F)c1F [Example 194, 6-(3-(allyloxy)-2.6-difluorophenyl)-N-(4-((1R,3R,4R,5S)-3-amino-4-hydroxy-5-methylcyclohexyl)pyridin-3-yl)-5-fluoropicolinamide] | 0.05 | 1340 | 1.19 | 10.4 |
| C[C@H]1CN(c2ccncc2NC(=O)c2ccc(F)c(-c3c(F)cc(C4(F)CCOCC4)cc3F)n2)C[C@@H](N)[C@@H]1O [Example 195, N-(4-((3R,4R,5S)-3-amino-4-hydroxy-5-methylpiperidin-1-yl)pyridin-3-yl)-6-(2,6-difluoro-4-(4-fluorotetrahydro-2H-pyran-4-yl)phenyl)-5-fluoropicolinamide] | 0.01 | 36 | 0.18 | 0.39 |
| C[C@@H]1C[C@H](N)C[C@H](c2ccncc2NC(=O)c2ccc(F)c(-c3c(F)cc(OCC(F)(F)F)cc3F)n2)C1 [Example 196, N-(4-((1R,3S,5S)-3-amino-5-methylcyclohexyl)pyridin-3-yl)-6-(2,6-difluoro-4-(2,2,2-trifluoroethoxy)phenyl)-5-fluoropicolinamide] | 0.02 | 246 | 1.37 | 2.76 |
| C[C@H]1C[C@@H](c2ccncc2NC(=O)c2ccc(F)c(-c3c(F)cc(OCC(F)(F)F)cc3F)n2)C[C@@H](N)[C@@H]1O [Example 197, N-(4-((1R,3R,4R,5S)-3-amino-4-hydroxy-5-methylcyclohexyl)pyridin-3-yl)-6-(2,6-difluoro-4-(2,2,2-trifluoroethoxy)phenyl)-5-fluoropicolinamide] | 0.05 | 619 | 1.43 | 2.56 |
| C[C@H]1CN(c2ccncc2NC(=O)c2ccc(F)c(-c3c(F)cc(OCC(F)(F)F)cc3F)n2)C[C@@H](N)[C@@H]1O [Example 198, N-(4-((3R,4R,5S)-3-amino-4-hydroxy-5-methylpiperidin-1-yl)pyridin-3-yl)-6-(2,6-difluoro-4-(2,2,2-trifluoroethoxy)phenyl)-5-fluoropicolinamide] | 0.01 | 98 | 0.17 | 0.33 |
| C[C@H]1CN(c2ccncc2NC(=O)c2ccc(F)c(-c3c(F)cc(OCC4CCOCC4)cc3F)n2)C[C@@H](N)[C@@H]1O [Example 200, N-(4-((3R,4R,5S)-3-amino-4-hydroxy-5-methylpiperidin-1-yl)pyridin-3-yl)-6-(2,6-difluoro-4-((tetrahydro-2H-pyran-4-yl)methoxy)phenyl)-5-fluoropicolinamide] | 0.01 | 82 | 0.19 | 0.56 |
| CCOC(C)(C)c1cc(F)c(-c2nc(C(=O)Nc3cnccc3N3C[C@@H](N)[C@H](O)[C@@H](C)C3)ccc2F)c(F)c1 [Example 201, N-(4-((3R,4R,5S)-3-amino-4-hydroxy-5-methylpiperidin-1-yl)pyridin-3-yl)-6-(4-(2-ethoxypropan-2-yl)-2,6-difluorophenyl)-5-fluoropicolinamide] | 0.01 | 239 | 0.55 | 0.98 |
| C[C@@H]1C[C@H](N)C[C@H](c2ccncc2NC(=O)c2ccc(F)c(-c3c(F)cc(C4CCS(=O)(=O)CC4)cc3F)n2)C1 [Example 202, N-(4-((1R,3S,5S)-3-amino-5-methylcyclohexyl)pyridin-3-yl)-6-(4-(1,1-dioxidotetrahydro-2H-thiopyran-4-yl)-2,6-difluorophenyl)-5-fluoropicolinamide] | 0.01 | 251 | 0.68 | 1.09 |
| C[C@H]1C[C@@H](c2ccncc2NC(=O)c2ccc(F)c(-c3c(F)cc(C4CCS(=O)(=O)CC4)cc3F)n2)C[C@@H](N)[C@@H]1O [Example 203, N-(4-((1R,3R,4R,5S)-3-amino-4-hydroxy-5-methylcyclohexyl)pyridin-3-yl)-6-(4-(1,1-dioxidotetrahydro-2H-thiopyran-4-yl)-2,6-difluorophenyl)-5-fluoropicolinamide] | 0.02 | 1490 | 0.59 | 1.18 |
| C[C@H]1CN(c2ccncc2NC(=O)c2ccc(F)c(-c3c(F)cc(C4CCS(=O)(=O)CC4)cc3F)n2)C[C@@H](N)[C@@H]1O [Example 204, N-(4-((3R,4R,5S)-3-amino-4-hydroxy-5-methylpiperidin-1-yl)pyridin-3-yl)-6-(4-(1,1-dioxidotetrahydro-2H-thiopyran-4-yl)-2,6-difluorophenyl)-5-fluoropicolinamide] | 0.01 | 115 | 0.14 | 0.38 |
